Source: publication PMC5715147, “Albumin/vaccine nanocomplexes that assemble in vivo for combination cancer immunotherapy” (Nature Communications, 2017)
Blank lines part the entries; values can stand above or below the compound they belong to.

What was measured:
[1] = rhesus monkey, in vivo; cited from earlier work
Excerpt: Here we took a clinically oriented perspective to develop AlbiVax by first repurposing a clinically practiced EB that binds to albumin at binding site I[33], and then conjugating molecular vaccines with an EB derivative. The resulting albumin/AlbiVax nanocomplexes that assemble in vivo were efficiently delivered to LNs and induced potent and durable anti-cancer immunity. EB and derivatives have been developed for preclinical and clinical LN identification[34]–[39]. They have excellent clinical safety profiles[36],[39], and rhesus monkeys survived 25 mg kg^−1 systemically injected EB[40], a dos ... || Safe and robust T cell vaccines would hold great promise for combination cancer immunotherapy. Locally administered vaccines must provide efficient delivery to LNs for effective antitumor immunomodulation. Nanovaccines are a promising approach for efficient vaccine delivery to LNs, and quite a few have been developed preclinically, yet the clinical translation of these nanoformulas has been hindered by limitations in their safety, suitability for reproducible large-scale manufacturing, and in vivo integrity. We chose albumin, one of the most successful carriers of nanomedicines in the clinic, ...

[2] = PET quantification of vaccine delivery to draining LNs after s.c. injection; type: in vivo, FVB mice; conditions: 64Cu-labeled, s.c. at tail base
Experimental: AlbiVax was radiolabeled with ^64Cu for PET. To label ^64Cu via chelation, a NOTA-functionalized MEB (NMEB) was synthesized and conjugated with vaccines. […] The reaction was shaken for 0.5 h at 37 °C. Thereafter, the radiochemical purity was determined using iTLC plates (Fisher Scientific), developed in 0.1 M citric acid (pH 5).
Female FVB mice (6–8 weeks) were used in all PET imaging studies in naive mice. C57BL/6 mice (6–8 weeks) were used in PET imaging of tumor-bearing mice. Mice were anesthetized using isoflurane/O^2 (2% v v^−1) before injection. Anesthetized mice were injected s.c. at the base of tail with ^64Cu-labeled vaccines (4.44−5.55 MBq/120–150 μCi each mouse) in PBS (100 μL). At indicated time points post injection, mice were scanned on an Inveon DPET scanner (Siemens Medical Solutions, Malvern, PA). PET images were reconstructed without correction for attenuation or scattering using a three-dimensional ordered subsets expectation maximization algorithm. ASI Pro VM^TM software was used for image analysis. Regions of interest (ROI) were drawn on LNs to calculate the %ID/g.

[3] = Biodistribution in resected organs by γ counting; set-up: species or system FVB mice; conditions: mouse, in vivo, sc
Experimental: The above mice were killed at specified time points. Organs and blood were collected and wet weighed. The collected organs and blood, together with a series of standard solutions, were measured for ^64Cu radioactivity on a gamma counter (Wallac Wizard 1480, PerkinElmer). The radioactivity of organs and blood was converted to calculate the percentages of the injected dose (%ID) in organs of interest and the percentages of the injected dose per gram of tissue (%ID/g).

[4] = human, in vivo; cited from earlier work

Compound: Cc1cc(-c2ccc(/N=N/c3ccc4c(S(=O)(=O)O)cc(S(=O)(=O)O)c(N)c4c3O)c(C)c2)ccc1/N=N/c1ccc2c(S(=O)(=O)O)cc(S(=O)(=O)O)c(N)c2c1O [EB, Evans blue]
- systemically injected dose survived [1]: 25 mg/kg

- LN delivery (in words) ([2]; PET): no detectable
Compound: CC(C)C[C@H](NC(=O)[C@H](Cc1c[nH]c2ccccc12)NC(=O)[C@@H](NC(=O)[C@H](Cc1ccccc1)NC(=O)[C@H](Cc1ccccc1)NC(=O)[C@H](CC(=O)O)NC(=O)[C@H](Cc1ccc(O)cc1)NC(=O)[C@@H](NC(=O)[C@H](CO)NC(=O)[C@@H](N)CS)C(C)C)C(C)C)C(=O)O [Trp2]

Compound: CpG: CpG1826 (TCCATGACGTTCCTGACGTT), phosphorothioate oligodeoxynucleotide, TLR9 agonist
- %ID/g in IN LNs on day 5 [3]: 2.5 ± 1.3 %ID/g
- percent injection dose per gram of tissue in IN LNs on day 3 [3]: 8.3 ± 4.7 %ID/g
- injection dose (%ID) delivered to inguinal (IN) and axillary (AX) LNs ([2]; 4.4–5.5 Mbq, decay-corrected PET over 3 days, n = 4–8): < 0.3 %ID

Compound: albumin
- half-life [4]: over 20 days
